{"source": "paper PMC11859184", "about": "“Synthesis and Evaluation of ^68Ga- and ^177Lu-Labeled [diF-Pro^14]Bombesin(6−14) Analogs for Detection and Radioligand Therapy of Gastrin-Releasing Peptide Receptor-Expressing Cancer” (Pharmaceuticals, 2025)", "experiment": "Ex vivo biodistribution of 177Lu-labeled ligands in PC-3 tumor-bearing mice", "conditions": "mouse; for tissue to tissue ratio at 1 h / tissue to tissue ratio at 4 h / tissue to tissue ratio at 24 h / tissue to tissue ratio at 72 h / tissue to tissue ratio at 120 h: male, NOD.Cg-Rag1^tm1Mom Il2rg^tm1Wjl/SzJ (NRG), iv, total radioactivity; for tissue to tissue ratio at 1 h / tissue uptake at 1 h: 1 h pi; for tissue to tissue ratio at 4 h / tissue uptake at 4 h: 4 h pi; for tissue to tissue ratio at 24 h / tissue uptake at 24 h: 24 h pi; for tissue to tissue ratio at 120 h / tissue uptake at 120 h: 120 h pi; for tissue uptake at 1 h / tissue uptake at 4 h / tissue uptake at 24 h / tissue uptake at 72 h / tissue uptake at 120 h: intravenous", "method": "SPECT/CT imaging was conducted using an MI Labs (Houten, The Netherlands) U-SPECT-II/CT scanner with a custom-made ultra-high sensitivity big mouse collimator (2 mm pinhole size) following published procedure. The experiments were obtained in accordance with the same protocol established in the PET/CT imaging and ex vivo biodistributions section. The mice were used for SPECT/CT imaging and ex vivo biodistributions studies once the tumors reached a diameter of 5–8 mm. PC-3 tumor-bearing mice were sedated (2.5% isoflurane in O2) and injected with 31.4–36.9 MBq of the ^177Lu-labeled ligand through a lateral caudal tail vein. The mouse was imaged at 1, 4, 24, 72, and 120 h pi. At each time point, a 5 min CT scan was performed with 615 μA and 60 kV parameters for localization and attenuation, followed by two 30 min static SPECT scans in list mode with an energy window centered around 208 keV. The U-SPECT II software was used to reconstruct data, and the images were decay corrected to the time of injection with PMOD v 3.402 (PMOD Technologies GmbH, Fallanden, Switzerland).\nFor ex vivo biodistribution studies, the mice were injected with ~3–5 MBq of the ^177Lu-labeled ligand (n = 5). At 1, 4, 24, 72, and 120 h post-injection, the mice were anesthetized with 2% isoflurane, euthanized by CO2 inhalation, and the tissues/organs of interest were […] for radioactivity counting. The blocking study was performed at 1 h pi via co-injection of the ^177Lu-labeled ligand with 100 μg of [D-Phe^6,Leu-NHEt^13,des-Met^14]Bombesin(6–14).", "key": {"[1]": {"conditions": "tumor/blood, n = 5, read-out: Tumor/blood uptake ratio"}, "[2]": {"conditions": "tumor/kidney, n = 5, read-out: Tumor/kidney uptake ratio"}, "[3]": {"conditions": "tumor/muscle, n = 5, read-out: Tumor/muscle uptake ratio"}, "[4]": {"conditions": "tumor/pancreas, n = 5, read-out: Tumor/pancreas uptake ratio"}, "[5]": {"conditions": "PC-3 tumor, n = 5, read-out: PC-3 tumor uptake"}, "[6]": {"conditions": "adrenal glands, n = 5, read-out: Adrenal glands uptake"}, "[7]": {"conditions": "blood, n = 5, read-out: Blood uptake"}, "[8]": {"conditions": "bone, n = 5, read-out: Bone uptake"}, "[9]": {"conditions": "brain, n = 5, read-out: Brain uptake"}, "[10]": {"conditions": "fat, n = 5, read-out: Fat uptake"}, "[11]": {"conditions": "heart, n = 5, read-out: Heart uptake"}}, "note": "Where two headings read alike, the source gives them in different places.", "data": [{"smiles": "CC(C)C[C@@H](CN1CC(F)(F)C[C@H]1C(N)=O)NC(=O)[C@H](Cc1c[nH]cn1)NC(=O)CN(C)C(=O)[C@@H](NC(=O)[C@H](C)NC(=O)[C@H](Cc1c[nH]c2ccccc12)NC(=O)[C@H](CCC(N)=O)NC(=O)[C@@H](Cc1ccccc1)NC(=O)CN1CCC(NC(=O)CN2CCN(CC(=O)O)CCN(CC(=O)O)CCN(CC(=O)O)CC2)CC1)C(C)C", "note": "[[^177Lu]Lu-LW02080, metal not drawn]", "values": [{"measurement": "tissue to tissue ratio at 1 h", "setting": "tumor/blood, blocked (100 µg GRPR antagonist co-injected), read-out: Tumor/blood uptake ratio", "value": "3.06 ± 0.99"}, {"measurement": "tissue to tissue ratio at 1 h", "setting": "[1]", "value": "16.9 ± 5.57"}, {"measurement": "tissue to tissue ratio at 4 h", "setting": "[1]", "value": "136 ± 14.7"}, {"measurement": "tissue to tissue ratio at 24 h", "setting": "[1]", "value": "365 ± 251"}, {"measurement": "tissue to tissue ratio at 72 h", "setting": "tumor/blood, 72 h pi, n = 5, read-out: Tumor/blood uptake ratio", "value": "1300 ± 703"}, {"measurement": "tissue to tissue ratio at 120 h", "setting": "[1]", "value": "529 ± 380"}, {"measurement": "tissue to tissue ratio at 1 h", "setting": "tumor/kidney, blocked (100 µg GRPR antagonist co-injected), read-out: Tumor/kidney uptake ratio", "value": "0.52 ± 0.08"}, {"measurement": "tissue to tissue ratio at 1 h", "setting": "[2]", "value": "2.17 ± 0.49"}, {"measurement": "tissue to tissue ratio at 4 h", "setting": "[2]", "value": "1.61 ± 0.3"}, {"measurement": "tissue to tissue ratio at 24 h", "setting": "[2]", "value": "1.34 ± 0.38"}, {"measurement": "tissue to tissue ratio at 72 h", "setting": "tumor/kidney, 72 h pi, n = 5, read-out: Tumor/kidney uptake ratio", "value": "2.17 ± 0.33"}, {"measurement": "tissue to tissue ratio at 120 h", "setting": "[2]", "value": "2.77 ± 0.65"}, {"measurement": "tissue to tissue ratio at 1 h", "setting": "tumor/muscle, blocked (100 µg GRPR antagonist co-injected), read-out: Tumor/muscle uptake ratio", "value": "14.6 ± 2.5"}, {"measurement": "tissue to tissue ratio at 1 h", "setting": "[3]", "value": "90 ± 17.3"}, {"measurement": "tissue to tissue ratio at 4 h", "setting": "[3]", "value": "275 ± 35"}, {"measurement": "tissue to tissue ratio at 24 h", "setting": "[3]", "value": "149 ± 50.5"}, {"measurement": "tissue to tissue ratio at 72 h", "setting": "tumor/muscle, 72 h pi, n = 5, read-out: Tumor/muscle uptake ratio", "value": "356 ± 110"}, {"measurement": "tissue to tissue ratio at 120 h", "setting": "[3]", "value": "214 ± 77.9"}, {"measurement": "tissue to tissue ratio at 1 h", "setting": "tumor/pancreas, blocked (100 µg GRPR antagonist co-injected), read-out: Tumor/pancreas uptake ratio", "value": "6.53 ± 0.76"}, {"measurement": "tissue to tissue ratio at 1 h", "setting": "[4]", "value": "14.8 ± 2.39"}, {"measurement": "tissue to tissue ratio at 4 h", "setting": "[4]", "value": "48.1 ± 11.3"}, {"measurement": "tissue to tissue ratio at 24 h", "setting": "[4]", "value": "26.5 ± 4.82"}, {"measurement": "tissue to tissue ratio at 72 h", "setting": "tumor/pancreas, 72 h pi, n = 5, read-out: Tumor/pancreas uptake ratio", "value": "46.8 ± 13.9"}, {"measurement": "tissue to tissue ratio at 120 h", "setting": "[4]", "value": "51.5 ± 13.9"}, {"measurement": "tissue uptake at 1 h", "setting": "PC-3 tumor, 100 ug, blocked (100 µg GRPR antagonist co-injected), read-out: PC-3 tumor uptake", "value": "2.02 ± 0.44", "unit": "%ID/g"}, {"measurement": "tissue uptake at 1 h", "setting": "[5]", "value": "5.67 ± 1.02", "unit": "%ID/g"}, {"measurement": "tissue uptake at 4 h", "setting": "[5]", "value": "2.96 ± 0.37", "unit": "%ID/g"}, {"measurement": "tissue uptake at 24 h", "setting": "[5]", "value": "1.12 ± 0.2", "unit": "%ID/g"}, {"measurement": "tissue uptake at 72 h", "setting": "PC-3 tumor, 72 h pi, n = 5, read-out: PC-3 tumor uptake", "value": "0.55 ± 0.15", "unit": "%ID/g"}, {"measurement": "tissue uptake at 120 h", "setting": "[5]", "value": "0.32 ± 0.06", "unit": "%ID/g"}, {"measurement": "tissue uptake at 72 h", "setting": "PC-3 tumor, after 72 h pi, read-out: tumor uptake", "value": "< 1", "unit": "%ID/g"}, {"measurement": "tissue uptake at 1 h", "setting": "adrenal glands, 100 ug, blocked (100 µg GRPR antagonist co-injected), read-out: Adrenal glands uptake", "value": "0.23 ± 0.06", "unit": "%ID/g"}, {"measurement": "tissue uptake at 1 h", "setting": "[6]", "value": "0.18 ± 0.05", "unit": "%ID/g"}, {"measurement": "tissue uptake at 4 h", "setting": "[6]", "value": "0.17 ± 0.09", "unit": "%ID/g"}, {"measurement": "tissue uptake at 24 h", "setting": "[6]", "value": "0.12 ± 0.05", "unit": "%ID/g"}, {"measurement": "tissue uptake at 72 h", "setting": "adrenal glands, 72 h pi, n = 5, read-out: Adrenal glands uptake", "value": "0.02 ± 0.01", "unit": "%ID/g"}, {"measurement": "tissue uptake at 120 h", "setting": "[6]", "value": "0.03 ± 0.02", "unit": "%ID/g"}, {"measurement": "tissue uptake at 1 h", "setting": "blood, 100 ug, blocked (100 µg GRPR antagonist co-injected), read-out: Blood uptake", "value": "0.74 ± 0.18", "unit": "%ID/g"}, {"measurement": "tissue uptake at 1 h", "setting": "[7]", "value": "0.37 ± 0.14", "unit": "%ID/g"}, {"measurement": "tissue uptake at 4 h", "setting": "[7]", "value": 0.02, "unit": "%ID/g"}, {"measurement": "tissue uptake at 24 h", "setting": "[7]", "value": "0.01 ± 0.01", "unit": "%ID/g"}, {"measurement": "tissue uptake at 1 h", "setting": "bone, 100 ug, blocked (100 µg GRPR antagonist co-injected), read-out: Bone uptake", "value": "0.07 ± 0.04", "unit": "%ID/g"}, {"measurement": "tissue uptake at 1 h", "setting": "[8]", "value": "0.06 ± 0.01", "unit": "%ID/g"}, {"measurement": "tissue uptake at 4 h", "setting": "[8]", "value": 0.01, "unit": "%ID/g"}, {"measurement": "tissue uptake at 24 h", "setting": "[8]", "value": "0.02 ± 0.01", "unit": "%ID/g"}, {"measurement": "tissue uptake at 72 h", "setting": "bone, 72 h pi, n = 5, read-out: Bone uptake", "value": "0.01 ± 0.01", "unit": "%ID/g"}, {"measurement": "tissue uptake at 120 h", "setting": "[8]", "value": "0.01 ± 0.01", "unit": "%ID/g"}, {"measurement": "tissue uptake at 1 h", "setting": "brain, 100 ug, blocked (100 µg GRPR antagonist co-injected), read-out: Brain uptake", "value": "0.02 ± 0.01", "unit": "%ID/g"}, {"measurement": "tissue uptake at 1 h", "setting": "[9]", "value": 0.02, "unit": "%ID/g"}, {"measurement": "tissue uptake at 4 h", "setting": "[9]", "value": 0.01, "unit": "%ID/g"}, {"measurement": "tissue uptake at 1 h", "setting": "fat, 100 ug, blocked (100 µg GRPR antagonist co-injected), read-out: Fat uptake", "value": "0.09 ± 0.04", "unit": "%ID/g"}, {"measurement": "tissue uptake at 1 h", "setting": "[10]", "value": "0.04 ± 0.02", "unit": "%ID/g"}, {"measurement": "tissue uptake at 4 h", "setting": "[10]", "value": "0.01 ± 0.01", "unit": "%ID/g"}, {"measurement": "tissue uptake at 24 h", "setting": "[10]", "value": 0.01, "unit": "%ID/g"}, {"measurement": "tissue uptake at 1 h", "setting": "heart, 100 ug, blocked (100 µg GRPR antagonist co-injected), read-out: Heart uptake", "value": "0.23 ± 0.05", "unit": "%ID/g"}, {"measurement": "tissue uptake at 1 h", "setting": "[11]", "value": "0.13 ± 0.05", "unit": "%ID/g"}, {"measurement": "tissue uptake at 4 h", "setting": "[11]", "value": "0.03 ± 0.01", "unit": "%ID/g"}, {"measurement": "tissue uptake at 24 h", "setting": "[11]", "value": "0.02 ± 0.01", "unit": "%ID/g"}, {"measurement": "tissue uptake at 72 h", "setting": "heart, 72 h pi, n = 5, read-out: Heart uptake", "value": 0.01, "unit": "%ID/g"}]}]}
